The target of this test is T1, Dimer of Gag-Pol polyprotein [489-587] (Human immunodeficiency virus 1, UniProt P12497).
T1 construct: 489-587
As to the kind of experiment: Protease Inhibition Assay. As for the experimental part:
For determination of IC50 values, HIV-1 protease was added to assay buffer containing inhibitor and the substrate (H-His-Lys-Ala-Arg-Val-Leu- (p-NO2) Phe-Glu-Ala-norleucine-Ser-NH2). The Leu- (p-NO2) Phe bond of the substrate was cleaved by the enzyme, and the substrate and products were separated by reversed-phase HPLC. Absorbance was measured at 220 nm, peak areas were determined, and percentage conversion to product was calculated.

The term Ki denotes the dissociation constant of the complex between target and ligand, obtained from inhibition or displacement. Low readings indicate tighter binding, high ones weaker binding. The IC50 is the point on the concentration scale where inhibition reaches its midpoint.

Turning to `Cc1cc(SC2C(=O)CC(CCc3ccccc3)(C(C)C)OC2=O)c(C(C)(C)C)cc1O` (stereo not given), the Ki was found to be 1.1 nM. Regarding `Cc1cc(SC2C(=O)CC(CCc3ccc(O)cc3)(C3CCCCC3)OC2=O)c(C(C)(C)C)cc1O` (stereo not given) [3-(2-tert-Butyl-4-hydroxy-5-methyl-phenylsulfanyl)-6-cyclohexyl-4-hydroxy-6-[2-(4-hydroxy-phenyl)-ethyl]-5,6-dihydro-pyran-2-one], inhibition (pH 6.2, 37 °C) was half-maximal at 2.9 nM (IC50). The compound `COCOCCOc1cc(C(C)(C)C)c(SC2C(=O)CC(C)(CCc3ccc(O)cc3)OC2=O)cc1C` (stereo not given) [3-({2-tert-butyl-4-[2-(methoxymethoxy)ethoxy]-5-methylphenyl}sulfanyl)-4-hydroxy-6-[2-(4-hydroxyphenyl)ethyl]-6-methyl-5,6-dihydro-2H-pyran-2-one] registered an IC50 of 20 nM. In turn, `Cc1ccc(C(C)(C)C)c(SC2C(=O)CC(CCc3ccccc3)(C(C)C)OC2=O)c1` (stereo not given) [3-[(2-tert-butyl-5-methylphenyl)sulfanyl]-4-hydroxy-6-(2-phenylethyl)-6-(propan-2-yl)-5,6-dihydro-2H-pyran-2-one] displayed an IC50 of 1.1 nM. For `Cc1ccc(C(C)(C)C)c(SC2C(=O)CC(CCc3ccc(O)cc3)OC2=O)c1` (stereo not given) [3-[(2-tert-butyl-5-methylphenyl)sulfanyl]-4-hydroxy-6-[2-(4-hydroxyphenyl)ethyl]-5,6-dihydro-2H-pyran-2-one], for the setting “pH 6.2, 37 °C”, the midpoint of inhibition, the IC50, lay at 338 nM. With `CCCC1(CCc2ccc(O)cc2)CC(=O)C(Sc2cc(C)ccc2C(C)(C)C)C(=O)O1` (stereo not given) [3-[(2-tert-butyl-5-methylphenyl)sulfanyl]-4-hydroxy-6-[2-(4-hydroxyphenyl)ethyl]-6-propyl-5,6-dihydro-2H-pyran-2-one], half-maximal inhibition (pH 6.2, 37 °C) (IC50) was put at 19 nM. `Cc1ccc(C(C)(C)C)c(SC2C(=O)CC(CCc3ccc(O)cc3)(C3CCCCC3)OC2=O)c1` (stereo not given) [3-[(2-tert-butyl-5-methylphenyl)sulfanyl]-6-cyclohexyl-4-hydroxy-6-[2-(4-hydroxyphenyl)ethyl]-5,6-dihydro-2H-pyran-2-one] returned an IC50 (pH 6.2, 37 °C) of 33 nM. Regarding `Cc1cc(SC2C(=O)CC(CCc3ccccc3)(C(C)C)OC2=O)c(C(C)(C)C)cc1OCCO` (stereo not given) [3-{[2-tert-butyl-4-(2-hydroxyethoxy)-5-methylphenyl]sulfanyl}-4-hydroxy-6-(2-phenylethyl)-6-(propan-2-yl)-5,6-dihydro-2H-pyran-2-one], the IC50 was 2.6 nM.

In turn, `CCCCCC1(CCc2ccc(O)cc2)CC(=O)C(Sc2cc(C)c(OCCO)cc2C(C)(C)C)C(=O)O1` (stereo not given) [3-{[2-tert-butyl-4-(2-hydroxyethoxy)-5-methylphenyl]sulfanyl}-4-hydroxy-6-[2-(4-hydroxyphenyl)ethyl]-6-pentyl-5,6-dihydro-2H-pyran-2-one] showed an IC50 of 2.9 nM.

In turn, `CCCC1(CCc2ccc(O)cc2)CC(=O)C(Sc2cc(C)c(OCCO)cc2C(C)(C)C)C(=O)O1` (stereo not given) [3-{[2-tert-butyl-4-(2-hydroxyethoxy)-5-methylphenyl]sulfanyl}-4-hydroxy-6-[2-(4-hydroxyphenyl)ethyl]-6-propyl-5,6-dihydro-2H-pyran-2-one] displayed an IC50 of 6 nM.

With `Cc1cc(SC2C(=O)CC(CCc3ccc(O)cc3)(C3CCCC3)OC2=O)c(C(C)(C)C)cc1OCCO` (stereo not given) [3-{[2-tert-butyl-4-(2-hydroxyethoxy)-5-methylphenyl]sulfanyl}-6-cyclopentyl-4-hydroxy-6-[2-(4-hydroxyphenyl)ethyl]-5,6-dihydro-2H-pyran-2-one], the IC50 came out at 2.8 nM. In turn, `Cc1cc(SC2C(=O)CC(CCc3ccccc3)(C(C)C)OC2=O)c(C(C)(C)C)cc1CO` (stereo not given) [3-{[2-tert-butyl-4-(hydroxymethyl)-5-methylphenyl]sulfanyl}-4-hydroxy-6-(2-phenylethyl)-6-(propan-2-yl)-5,6-dihydro-2H-pyran-2-one] displayed an IC50 of 2.2 nM. `Cc1cc(SC2C(=O)CC(CCc3ccc(O)cc3)(CC(C)C)OC2=O)c(C(C)(C)C)cc1CO` (stereo not given) [3-{[2-tert-butyl-4-(hydroxymethyl)-5-methylphenyl]sulfanyl}-4-hydroxy-6-[2-(4-hydroxyphenyl)ethyl]-6-(2-methylpropyl)-5,6-dihydro-2H-pyran-2-one] showed an IC50 (pH 6.2, 37 °C) of 3.3 nM.

Consider `Cc1cc(SC2C(=O)CC(CCc3ccc(O)cc3)(C(C)C)OC2=O)c(C(C)(C)C)cc1CO` (stereo not given) [3-{[2-tert-butyl-4-(hydroxymethyl)-5-methylphenyl]sulfanyl}-4-hydroxy-6-[2-(4-hydroxyphenyl)ethyl]-6-(propan-2-yl)-5,6-dihydro-2H-pyran-2-one], for which the Ki (pH 6.2, 37 °C) stood at 0.17 nM. The compound `CCCCCC1(CCc2ccc(O)cc2)CC(=O)C(Sc2cc(C)c(CO)cc2C(C)(C)C)C(=O)O1` (stereo not given) [3-{[2-tert-butyl-4-(hydroxymethyl)-5-methylphenyl]sulfanyl}-4-hydroxy-6-[2-(4-hydroxyphenyl)ethyl]-6-pentyl-5,6-dihydro-2H-pyran-2-one] came in with an IC50 (pH 6.2, 37 °C) of 5.9 nM. `CCCC1(CCc2ccc(O)cc2)CC(=O)C(Sc2cc(C)c(CO)cc2C(C)(C)C)C(=O)O1` (stereo not given) [3-{[2-tert-butyl-4-(hydroxymethyl)-5-methylphenyl]sulfanyl}-4-hydroxy-6-[2-(4-hydroxyphenyl)ethyl]-6-propyl-5,6-dihydro-2H-pyran-2-one] came in with an IC50 (pH 6.2, 37 °C) of 2.6 nM. In turn, `Cc1cc(SC2C(=O)CC(CCc3ccc(O)cc3)(C3CCC3)OC2=O)c(C(C)(C)C)cc1CO` (stereo not given) [3-{[2-tert-butyl-4-(hydroxymethyl)-5-methylphenyl]sulfanyl}-6-cyclobutyl-4-hydroxy-6-[2-(4-hydroxyphenyl)ethyl]-5,6-dihydro-2H-pyran-2-one] came in with an IC50 (pH 6.2, 37 °C) of 2.2 nM.

With `Cc1cc(SC2C(=O)CC(CCc3ccc(O)cc3)(C3CCCC3)OC2=O)c(C(C)(C)C)cc1CO` (stereo not given) [3-{[2-tert-butyl-4-(hydroxymethyl)-5-methylphenyl]sulfanyl}-6-cyclopentyl-4-hydroxy-6-[2-(4-hydroxyphenyl)ethyl]-5,6-dihydro-2H-pyran-2-one], inhibition (pH 6.2, 37 °C) was half-maximal at 3.1 nM (IC50).

On to `Cc1cc(SC2C(=O)CC(CCc3ccc(N)cc3)(CC(C)C)OC2=O)c(C(C)(C)C)cc1CO` (stereo not given) [6-[2-(4-aminophenyl)ethyl]-3-{[2-tert-butyl-4-(hydroxymethyl)-5-methylphenyl]sulfanyl}-4-hydroxy-6-(2-methylpropyl)-5,6-dihydro-2H-pyran-2-one], for which inhibition was half-maximal at 2.9 nM (IC50).

Compound `Cc1cc(SC2C(=O)CC(CCc3ccc(N)cc3)(C(C)C)OC2=O)c(C(C)(C)C)cc1CO` (stereo not given) [6-[2-(4-aminophenyl)ethyl]-3-{[2-tert-butyl-4-(hydroxymethyl)-5-methylphenyl]sulfanyl}-4-hydroxy-6-(propan-2-yl)-5,6-dihydro-2H-pyran-2-one] came in with a Ki of 0.43 nM. As for `CCCCC1(CCc2ccc(O)cc2)CC(=O)C(Sc2cc(C)c(OCCO)cc2C(C)(C)C)C(=O)O1` (stereo not given) [6-butyl-3-{[2-tert-butyl-4-(2-hydroxyethoxy)-5-methylphenyl]sulfanyl}-4-hydroxy-6-[2-(4-hydroxyphenyl)ethyl]-5,6-dihydro-2H-pyran-2-one], the IC50 turned out to be 6.4 nM. For `CCCCC1(CCc2ccc(O)cc2)CC(=O)C(Sc2cc(C)c(CO)cc2C(C)(C)C)C(=O)O1` (stereo not given) [6-butyl-3-{[2-tert-butyl-4-(hydroxymethyl)-5-methylphenyl]sulfanyl}-4-hydroxy-6-[2-(4-hydroxyphenyl)ethyl]-5,6-dihydro-2H-pyran-2-one], the IC50 (pH 6.2, 37 °C) was 4.1 nM. Take `Cc1cc(SC2C(=O)CC(CCc3ccc(O)cc3)(C(C)C)OC2=O)c(C(C)(C)C)cc1OCCO` (stereo not given) [(3-(2-tert-Butyl-4-(2-hydroxy-ethoxy)-5-methyl-phenylsulfanyl)-4-hydroxy-6-[2-(4-hydroxy-phenyl)-ethyl]-6-isopropyl-5,6-dihydro-pyran-2-one]: the half-maximal inhibitory concentration (IC50) amounted to 2.8 nM. `Cc1cc(SC2C(=O)CC(CCc3ccc(O)cc3)(C3CC3)OC2=O)c(C(C)(C)C)cc1OCCO` (stereo not given) [(3-(2-tert-Butyl-4-(2-hydroxy-ethoxy)-5-methyl-phenylsulfanyl)-6-cyclopropyl-4-hydroxy-6-[2-(4-hydroxy-phenyl)-ethyl]-5,6-dihydro-pyran-2-one]: inhibition was half-maximal at 3.8 nM (IC50). `Cc1cc(SC2C(=O)C[C@](CCc3ccc(O)cc3)(C(C)C)OC2=O)c(C(C)(C)C)cc1CO` (stereo not given in full) [(3-(2-tert-Butyl-4-hydroxymethyl-5-methyl-phenylsulfanyl)-4-hydroxy-6-[2-(4-hydroxypheny)-ethyl]-6-isopropyl-5,6-dihydro-pyran-2-one] registered a Ki of 31 nM.

`Cc1cc(SC2C(=O)CC(CCc3ccc(O)cc3)(C3CC3)OC2=O)c(C(C)(C)C)cc1CO` (stereo not given) [(3-(2-tert-Butyl-4-hydroxymethyl-5-methyl-phenylsulfanyl)-6-cyclopropyl-4-hydroxy-6-[2-(4-hydroxy-phenyl)-ethyl]-5,6-dihydro-pyran-2-one]: the IC50 (pH 6.2, 37 °C) worked out at 1 nM.

For the setting “pH 6.2, 37 °C”, `Cc1ccc(C(C)(C)C)c(SC2C(=O)CC(CCc3ccc(O)cc3)(C3CCCC3)OC2=O)c1` (stereo not given) [(3-(2-tert-Butyl-5-methyl-phenylsulfanyl)-4-hydroxy-6-[2-(4-hydroxy-phenyl)-ethyl]-6-cyclopentyl-5,6-dihydro-pyran-2-one] displayed an IC50 of 7.2 nM.

On to `Cc1ccc(C(C)(C)C)c(SC2C(=O)CC(CCc3ccc(O)cc3)(C(C)C)OC2=O)c1` (stereo not given) [(3-(2-tert-Butyl-5-methyl-phenylsulfanyl)-4-hydroxy-6-[2-(4-hydroxy-phenyl)-ethyl]-6-isopropyl-5,6-dihydro-pyran-2-one], for which inhibition (pH 6.2, 37 °C) was half-maximal at 4.6 nM (IC50). Compound `Cc1ccc(C(C)(C)C)c(SC2C(=O)CC(C)(CCc3ccc(O)cc3)OC2=O)c1` (stereo not given) [(3-(2-tert-Butyl-5-methyl-phenylsulfanyl)-4-hydroxy-6-[2-(4-hydroxy-phenyl)-ethyl]-6-methyl-5,6-dihydro-pyran-2-one] yielded an IC50 (pH 6.2, 37 °C) of 9.5 nM. Take `Cc1ccc(C(C)(C)C)c(SC2C(=O)CC(CCc3ccc(O)cc3)(C3CC3)OC2=O)c1` (stereo not given) [(3-(2-tert-Butyl-5-methyl-phenylsulfanyl)-6-cyclopropyl-4-hydroxy-6-[2-(4-hydroxy-phenyl)-ethyl]-5,6-dihydro-pyran-2-one]: the IC50 (pH 6.2, 37 °C) was found to be 8 nM.

For the origin of these results see BindingDB's records for doi:10.1016/s0968-0896(99)00215-1 (Parke-Davis Pharmaceutical Research, 1999).
